This passage reports inhibition and IC50 results from patent US7795294B2, “Tetrahydro-2H-indazole pyrazole cannabinoid modulators” (Janssen Pharmaceutica N.V., priority 2006, dated 2010).

The target of one assay is T1, human CB2 receptor (Homo sapiens, UniProt P34972).
T1 construct: expressed in transfected cells; host or cells: SK-N-MC cells, stably transfected with pcDNA3 CB-2 (human); semi-purified membrane pellet
Kind of assay: Binding assay for CB2 agonists or inverse agonists, [3H]-CP-55,940 displacement on membranes of transfected SK-N-MC cells. The conditions noted are these: for inhibition at 0.2 µM: read-out: Cannabinoid CB2 Receptor Binding percent inhibition. As to the method:
(§1) The human CB1 and CB2 receptors were stably expressed in SK-N-MC cells transfected with pcDNA3 CB-1 (human) or pcDNA3 CB-2 (human). The cells were grown in T-180 cell culture flasks under standard cell culture conditions at 37° C. in a 5% CO2 atmosphere. The cells were harvested by trysinization and homogenized in a homogenization buffer (10 mM Tris, 0.2 mM MgCl2, 5 mM KCl, with protease inhibitors aprotinin, leupeptin, pepstatin A and bacitracin) and centrifuged (2000 g). The supernatant was then centrifuged in 2M sucrose (31,300 g) to produce a semi-purified membrane pellet. The pellet was resuspended in homogenization and stored at −80° C.
(§2) On the day of the assay, the pellet was thawed on ice and diluted in assay buffer (50 mM Tris-HCl, 5 mM MgCl2, 2.5 mM EDTA, 0.5 mg/mL fatty acid free bovine serum albumin, pH 7.5). […] The plate was covered and incubated for 90 minutes at 30° C. The contents were then aspirated onto a Packard Unifilter GF/C filter bottom plate prewet with 0.5% polyethyleneimine. The wells of the polypropylene plate were rinsed and aspirated seven times with a 0.9% saline-0.5% Tween 20 solution. The Unifilter plate was dried, a scintillation cocktail was added to each well and the counts representing binding were quantitated in a TopCount scintillation counter.
(§3) For compounds tested, an IC50 binding value was obtained from percent inhibition studies in which various test concentrations were used. The binding value was calculated by linear regression. An average value is shown for those compounds where two or more IC50 values were obtained.
(§4) An average value is shown for those compounds where two or more percent inhibition values were obtained.

A further assay deals with T2, human CB1 receptor (Homo sapiens, UniProt P21554).
T2 construct: expressed in transfected cells; host or cells: SK-N-MC cells, stably transfected with pcDNA3 CB-1 (human); semi-purified membrane pellet
T2 sequence (P21554 whole entry): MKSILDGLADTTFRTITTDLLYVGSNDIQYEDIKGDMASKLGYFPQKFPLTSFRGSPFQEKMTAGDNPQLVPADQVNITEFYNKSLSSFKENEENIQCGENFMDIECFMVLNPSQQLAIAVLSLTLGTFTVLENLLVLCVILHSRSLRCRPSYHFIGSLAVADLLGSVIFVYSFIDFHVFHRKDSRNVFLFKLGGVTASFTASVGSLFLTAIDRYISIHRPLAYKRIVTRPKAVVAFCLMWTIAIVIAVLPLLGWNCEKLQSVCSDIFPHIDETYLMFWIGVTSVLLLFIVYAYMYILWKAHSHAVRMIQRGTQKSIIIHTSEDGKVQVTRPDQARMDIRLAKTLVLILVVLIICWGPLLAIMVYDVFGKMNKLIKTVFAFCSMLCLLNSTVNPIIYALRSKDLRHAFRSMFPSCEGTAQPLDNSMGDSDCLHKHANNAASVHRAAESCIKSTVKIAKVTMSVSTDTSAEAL
Kind of assay: Binding assay for CB1 agonists or inverse agonists, [3H]-CP-55,940 displacement on membranes of transfected SK-N-MC cells. The conditions noted are these: for inhibition at 0.2 µM: read-out: Cannabinoid CB1 Receptor Binding percent inhibition. The procedure: as §1, §2, §3, §4

pIC50: −log10 of the molar value.

T1 sequence (P34972 whole entry): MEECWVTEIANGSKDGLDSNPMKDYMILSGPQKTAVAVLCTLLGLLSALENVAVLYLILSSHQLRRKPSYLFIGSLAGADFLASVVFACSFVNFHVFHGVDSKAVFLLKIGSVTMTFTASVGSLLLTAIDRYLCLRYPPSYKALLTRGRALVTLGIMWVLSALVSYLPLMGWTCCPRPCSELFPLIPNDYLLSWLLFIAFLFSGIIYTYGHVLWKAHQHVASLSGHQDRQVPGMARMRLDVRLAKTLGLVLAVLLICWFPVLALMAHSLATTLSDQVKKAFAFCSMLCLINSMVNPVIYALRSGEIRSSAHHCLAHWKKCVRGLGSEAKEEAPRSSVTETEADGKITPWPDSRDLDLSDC

On to `COc1ccc(-c2c3c(nn2-c2ccc(Cl)cc2Cl)C(C(=O)NN(C)c2ccccc2)CCC3)cc1` (stereo not drawn) [Cpd 26, 2-(2,4-dichloro-phenyl)-3-(4-methoxy-phenyl)-4,5,6,7-tetrahydro-2H-indazole-7-carboxylic acid N′-methyl-N′-phenyl-hydrazide], for which the inhibition at 0.2 µM on human CB2 receptor was 32%. Further, the negative logarithm of the IC50 (pIC50) on human CB1 receptor is 8.22.

`C[C@@H](NC(=O)[C@H]1CCCc2c1nn(-c1ccc(Cl)cc1Cl)c2-c1ccc(Cl)s1)c1ccccc1` [Cpd 48, (7S)-3-(5-chloro-thiophen-2-yl)-2-(2,4-dichloro-phenyl)-4,5,6,7-tetrahydro-2H-indazole-7-carboxylic acid [(1R)-1-phenyl-ethyl]-amide]: the inhibition at 0.2 µM on human CB2 receptor was found to be 0%; at human CB1 receptor, 38%. For `CN(NC(=O)C1CCCc2c1nn(-c1ccc(Cl)cc1Cl)c2-c1ccc(Cl)cc1)c1ccccc1` (stereo not drawn) [Cpd 35, 3-(4-chloro-phenyl)-2-(2,4-dichloro-phenyl)-4,5,6,7-tetrahydro-2H-indazole-7-carboxylic acid N′-methyl-N′-phenyl-hydrazide], the inhibition at 0.2 µM at human CB2 receptor worked out at 3%. At human CB1 receptor, the pIC50 is 8.70.

For the compound `C[C@@H](NC(=O)[C@@H]1CCCc2c1nn(-c1ccc(Cl)cc1Cl)c2-c1ccc(Br)s1)c1ccccc1` [Cpd 53, (7R)-3-(5-bromo-thiophen-2-yl)-2-(2,4-dichloro-phenyl)-4,5,6,7-tetrahydro-2H-indazole-7-carboxylic acid [(1R)-1-phenyl-ethyl]-amide], the inhibition at 0.2 µM at human CB2 receptor came to 36%. In addition, the negative-log IC50 (pIC50) at human CB1 receptor is 8.40.

As for `C[C@@H](NC(=O)[C@H]1CCCc2c1nn(-c1ccc(Cl)cc1Cl)c2-c1ccc(Cl)cc1)c1ccccc1` [Cpd 39, (7S)-3-(4-chloro-phenyl)-2-(2,4-dichloro-phenyl)-4,5,6,7-tetrahydro-2H-indazole-7-carboxylic acid [(1R)-1-phenyl-ethyl]-amide], the inhibition at 0.2 µM at human CB2 receptor came out at 1%. The negative-log IC50 (pIC50) at human CB1 receptor was 7.66. Regarding `C[C@@H](NC(=O)[C@H]1CCCc2c1nn(-c1ccc(Cl)cc1Cl)c2-c1ccc(Br)cc1)c1ccccc1` [Cpd 45, (7S)-3-(4-bromo-phenyl)-2-(2,4-dichloro-phenyl)-4,5,6,7-tetrahydro-2H-indazole-7-carboxylic acid [(1R)-1-phenyl-ethyl]-amide], the inhibition at 0.2 µM amounted to 11% at human CB2 receptor and 66% on human CB1 receptor.

In the case of `O=C(N[C@H](CO)c1ccccc1)[C@H]1CCCc2c1nn(-c1ccc(Cl)cc1Cl)c2-c1ccc(Br)s1` [Cpd 56, (7S)-3-(5-bromo-thiophen-2-yl)-2-(2,4-dichloro-phenyl)-4,5,6,7-tetrahydro-2H-indazole-7-carboxylic acid [(1S)-2-hydroxy-1-phenyl-ethyl]-amide], the figures for the pIC50 at human CB2 receptor and on human CB1 receptor were 6.52 and 7.34, respectively. The corresponding values for `CC(NC(=O)C1CCCc2c1nn(Cc1ccccc1)c2-c1ccc(Cl)cc1)C12CC3CC(CC(C3)C1)C2` (stereo not drawn) [Cpd 18, 2-benzyl-3-(4-chloro-phenyl)-4,5,6,7-tetrahydro-2H-indazole-7-carboxylic acid (1-adamantan-1-yl-ethyl)-amide] are 5.72 and 5.21. Turning to `C[C@@H](NC(=O)C1CCCc2c1nn(-c1ccc(Cl)cc1Cl)c2-c1ccc(Cl)cc1)C1CCCCC1` (stereo partly drawn) [Cpd 29, 3-(4-chloro-phenyl)-2-(2,4-dichloro-phenyl)-4,5,6,7-tetrahydro-2H-indazole-7-carboxylic acid [(1R)-1-cyclohexyl-ethyl]-amide], the inhibition at 0.2 µM at human CB2 receptor was 7%. The compound also had a pIC50 at human CB1 receptor of 9.00. Regarding `C[C@@H](NC(=O)[C@@H]1CCCc2c1nn(-c1ccc(Cl)cc1Cl)c2-c1ccc(Cl)s1)c1ccccc1` [Cpd 49, (7R)-3-(5-chloro-thiophen-2-yl)-2-(2,4-dichloro-phenyl)-4,5,6,7-tetrahydro-2H-indazole-7-carboxylic acid [(1R)-1-phenyl-ethyl]-amide], the inhibition at 0.2 µM on human CB2 receptor was found to be 14%. At human CB1 receptor, this compound had a pIC50 of 8.15. Consider `O=C(NN1CC2CCCC2C1)C1CCCc2c1nn(-c1ccc(Cl)cc1Cl)c2-c1ccc(Cl)cc1` (stereo not drawn) [Cpd 50, 3-(4-chloro-phenyl)-2-(2,4-dichloro-phenyl)-4,5,6,7-tetrahydro-2H-indazole-7-carboxylic acid (hexahydro-cyclopenta[c]pyrrol-2-yl)-amide], for which the results for the inhibition at 0.2 µM at human CB2 receptor and on human CB1 receptor were 3% and 39%, respectively. In the case of `CC12CCC(C1)C(C)(C)[C@H]2NC(=O)C1CCCc2c1nn(Cc1ccccc1)c2-c1cccc(F)c1` (stereo partly drawn) [Cpd 19, 2-benzyl-3-(3-fluoro-phenyl)-4,5,6,7-tetrahydro-2H-indazole-7-carboxylic acid [(2S)-1,3,3-trimethyl-bicyclo[2.2.1]hept-2-yl]-amide], the pIC50 at human CB2 receptor is 6.54; on human CB1 receptor, 6.40. With `COc1ccc(-c2c3c(nn2-c2ccc(Cl)cc2Cl)[C@H](C(=O)N[C@H](C)c2ccccc2)CCC3)cc1` [Cpd 24, (7R)-2-(2,4-dichloro-phenyl)-3-(4-methoxy-phenyl)-4,5,6,7-tetrahydro-2H-indazole-7-carboxylic acid [(1R)-1-phenyl-ethyl]-amide], the results for the inhibition at 0.2 µM on human CB2 receptor and at human CB1 receptor were 28% and 58%, respectively. For the compound `COc1ccc(-c2c3c(nn2-c2ccc(Cl)cc2Cl)[C@@H](C(=O)N[C@H](C)c2ccccc2)CCC3)cc1` [Cpd 25, (7S)-2-(2,4-dichloro-phenyl)-3-(4-methoxy-phenyl)-4,5,6,7-tetrahydro-2H-indazole-7-carboxylic acid [(1R)-1-phenyl-ethyl]-amide], the inhibition at 0.2 µM on human CB2 receptor turned out to be 35%. Further, on human CB1 receptor, the pIC50 was 8.40.

On to `COc1ccc(-n2nc3c(c2-c2ccc(C)cc2)CCCC3C(=O)NC(C)C23CCC4CC(CC4C2)C3)cc1` (stereo not drawn) [Cpd 2, 2-(4-methoxy-phenyl)-3-p-tolyl-4,5,6,7-tetrahydro-2H-indazole-7-carboxylic acid [1-(octahydro-2,5-methano-inden-5-yl)-ethyl]-amide], for which the pIC50 at human CB2 receptor is 5.59; on human CB1 receptor, 5.67. With `C[C@@H](NC(=O)[C@@H]1CCCc2c1nn(-c1ccc(Cl)cc1Cl)c2-c1ccc(F)cc1)c1ccccc1` [Cpd 38, (7R)-2-(2,4-dichloro-phenyl)-3-(4-fluoro-phenyl)-4,5,6,7-tetrahydro-2H-indazole-7-carboxylic acid [(1R)-1-phenyl-ethyl]-amide], the inhibition at 0.2 µM at human CB2 receptor was 14%. In addition, the pIC50 at human CB1 receptor was 8.70. As to `C[C@@H](NC(=O)[C@H]1CCCc2c1nn(-c1ccc(Cl)cc1Cl)c2-c1ccc(F)cc1)c1ccccc1` [Cpd 37, (7S)-2-(2,4-dichloro-phenyl)-3-(4-fluoro-phenyl)-4,5,6,7-tetrahydro-2H-indazole-7-carboxylic acid [(1R)-1-phenyl-ethyl]-amide], the inhibition at 0.2 µM at human CB2 receptor was found to be 4%; on human CB1 receptor, 50%.

Consider `O=C(NN1CCCCC1)C1CCCc2c1nn(-c1ccc(Cl)cc1Cl)c2-c1ccc(Cl)cc1` (stereo not drawn) [Cpd 33, 3-(4-chloro-phenyl)-2-(2,4-dichloro-phenyl)-4,5,6,7-tetrahydro-2H-indazole-7-carboxylic acid piperidin-1-ylamide], for which the inhibition at 0.2 µM on human CB2 receptor was 0%. For the same compound, on human CB1 receptor, the negative logarithm of the IC50 (pIC50) was 7.41. As for `O=C(NN1CCCCC1)[C@@H]1CCCc2c1nn(-c1ccc(Cl)cc1Cl)c2-c1ccc(Br)cc1` [Cpd 51, (7R)-3-(4-bromo-phenyl)-2-(2,4-dichloro-phenyl)-4,5,6,7-tetrahydro-2H-indazole-7-carboxylic acid piperidin-1-ylamide], on human CB2 receptor, the inhibition at 0.2 µM turned out to be 27%. Further, the pIC50 at human CB1 receptor was 7.85.

On to `COC[C@H]1CCCN1NC(=O)C1CCCc2c1nn(-c1ccc(Cl)cc1Cl)c2-c1ccc(OC)cc1` (stereo partly drawn) [Cpd 32, 2-(2,4-dichloro-phenyl)-3-(4-methoxy-phenyl)-4,5,6,7-tetrahydro-2H-indazole-7-carboxylic acid [(2R)-2-methoxymethyl-pyrrolidin-1-yl]-amide], for which the values for the inhibition at 0.2 µM at human CB2 receptor and at human CB1 receptor were 6% and 46%, respectively. On to `CC12CCC(C1)C(C)(C)C2NC(=O)C1CCCc2c1nn(Cc1ccccc1)c2-c1ccc(Cl)cc1` (stereo not drawn) [Cpd 4, 2-benzyl-3-(4-chloro-phenyl)-4,5,6,7-tetrahydro-2H-indazole-7-carboxylic acid (1,3,3-trimethyl-bicyclo[2.2.1]hept-2-yl)-amide], for which the negative logarithm of the IC50 (pIC50) was 5.41 on human CB2 receptor and 5.26 on human CB1 receptor. Take `C[C@@H](NC(=O)C1CCCc2c1nn(-c1ccc(Cl)cc1Cl)c2-c1ccc(Br)cc1)C1CCCCC1` (stereo partly drawn) [Cpd 44, 3-(4-bromo-phenyl)-2-(2,4-dichloro-phenyl)-4,5,6,7-tetrahydro-2H-indazole-7-carboxylic acid [(1R)-1-cyclohexyl-ethyl]-amide]: the inhibition at 0.2 µM at human CB2 receptor was determined as 21%. Also, the negative-log IC50 (pIC50) at human CB1 receptor is 8.70. As for `COc1ccc(-c2c3c(nn2-c2ccc(Cl)cc2Cl)C(C(=O)N[C@H](C)c2ccccn2)CCC3)cc1` (stereo partly drawn) [Cpd 27, 2-(2,4-dichloro-phenyl)-3-(4-methoxy-phenyl)-4,5,6,7-tetrahydro-2H-indazole-7-carboxylic acid [(1R)-1-pyridin-2-yl-ethyl]-amide], the negative-log IC50 (pIC50) at human CB1 receptor is 7.51.
